Assay results reported in publication PMC9481570, “A small molecule antagonist of SMN disrupts the interaction between SMN and RNAP II” (Nature Communications, 2022).
Several values for one entry are separate records, joined by “and”; a condition that tells them apart may be missing. Identical values can stand only once.

Key:
Assay in all cases: Affinity-purification and mass spectrometry (AP-MS) chemical proteomics, all proteins;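 for Difference: 200 µM free competitor with 20 µM biotin probe overnight in lysate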
Format in all cases: binding
[1] = molecular target: T1, proteins displaced from immobilized biotin-Cmpd 1 pulldowns (U2OS cell lysate) (Homo sapiens, UniProt P40939); details: GN=HADHA (P40939)
T1 construct: endogenous in cells; host or cells: U2OS
T1 sequence (P40939 37-763): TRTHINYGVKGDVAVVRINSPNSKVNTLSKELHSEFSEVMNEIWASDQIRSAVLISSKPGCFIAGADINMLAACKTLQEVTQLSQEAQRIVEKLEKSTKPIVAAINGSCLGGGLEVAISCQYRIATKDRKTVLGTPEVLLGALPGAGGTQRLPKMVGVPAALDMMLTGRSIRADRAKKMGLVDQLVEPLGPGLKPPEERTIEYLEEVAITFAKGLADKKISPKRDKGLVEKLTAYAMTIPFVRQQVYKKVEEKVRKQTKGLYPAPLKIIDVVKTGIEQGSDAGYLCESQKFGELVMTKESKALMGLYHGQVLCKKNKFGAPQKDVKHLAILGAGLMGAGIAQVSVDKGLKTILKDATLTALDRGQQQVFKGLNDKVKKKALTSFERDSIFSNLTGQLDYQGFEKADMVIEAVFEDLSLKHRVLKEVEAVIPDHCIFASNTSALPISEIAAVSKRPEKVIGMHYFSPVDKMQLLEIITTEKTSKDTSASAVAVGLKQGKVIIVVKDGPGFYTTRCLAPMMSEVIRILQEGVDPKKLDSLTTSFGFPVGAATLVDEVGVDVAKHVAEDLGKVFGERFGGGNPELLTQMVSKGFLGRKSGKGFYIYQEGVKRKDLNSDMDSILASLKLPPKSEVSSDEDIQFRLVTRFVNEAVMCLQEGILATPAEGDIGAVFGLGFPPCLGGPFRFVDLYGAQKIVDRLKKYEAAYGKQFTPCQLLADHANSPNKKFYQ

[2] = molecular target: T2, proteins displaced from immobilized biotin-Cmpd 1 pulldowns (U2OS cell lysate) (Homo sapiens, UniProt Q9UI42); details: GN=CPA4 (Q9UI42)
T2 construct: endogenous in cells; host or cells: U2OS
T2 sequence (Q9UI42 114-421): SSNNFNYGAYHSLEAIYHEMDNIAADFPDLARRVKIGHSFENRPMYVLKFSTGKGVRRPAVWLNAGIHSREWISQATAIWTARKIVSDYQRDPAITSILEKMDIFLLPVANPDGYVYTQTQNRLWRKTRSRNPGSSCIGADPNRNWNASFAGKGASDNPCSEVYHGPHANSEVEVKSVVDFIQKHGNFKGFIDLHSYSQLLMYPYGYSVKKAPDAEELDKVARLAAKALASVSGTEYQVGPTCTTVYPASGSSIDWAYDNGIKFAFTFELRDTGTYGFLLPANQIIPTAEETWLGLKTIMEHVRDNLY

[3] = molecular target: T3, proteins displaced from immobilized biotin-Cmpd 1 pulldowns (U2OS cell lysate) (Homo sapiens, UniProt Q9NR12); details: GN=PDLIM7 (Q9NR12)
T3 construct: endogenous in cells; host or cells: U2OS
T3 sequence (Q9NR12 whole entry): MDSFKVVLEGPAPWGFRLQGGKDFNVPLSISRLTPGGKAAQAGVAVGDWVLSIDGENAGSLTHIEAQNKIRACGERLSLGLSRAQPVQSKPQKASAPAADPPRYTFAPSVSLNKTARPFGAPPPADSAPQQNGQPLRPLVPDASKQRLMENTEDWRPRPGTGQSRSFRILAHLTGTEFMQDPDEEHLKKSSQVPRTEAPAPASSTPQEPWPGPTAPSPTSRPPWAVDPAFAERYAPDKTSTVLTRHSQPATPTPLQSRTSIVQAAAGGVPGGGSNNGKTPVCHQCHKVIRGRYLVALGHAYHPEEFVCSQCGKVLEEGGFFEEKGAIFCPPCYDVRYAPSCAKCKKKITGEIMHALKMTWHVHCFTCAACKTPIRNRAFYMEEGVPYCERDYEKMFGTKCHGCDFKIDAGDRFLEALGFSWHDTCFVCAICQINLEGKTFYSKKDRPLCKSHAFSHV

[4] = molecular target: T4, proteins displaced from immobilized biotin-Cmpd 1 pulldowns (U2OS cell lysate) (Homo sapiens, UniProt P38646); details: GN=HSPA9 (P38646)
T4 construct: endogenous in cells; host or cells: U2OS
T4 sequence (P38646 47-679): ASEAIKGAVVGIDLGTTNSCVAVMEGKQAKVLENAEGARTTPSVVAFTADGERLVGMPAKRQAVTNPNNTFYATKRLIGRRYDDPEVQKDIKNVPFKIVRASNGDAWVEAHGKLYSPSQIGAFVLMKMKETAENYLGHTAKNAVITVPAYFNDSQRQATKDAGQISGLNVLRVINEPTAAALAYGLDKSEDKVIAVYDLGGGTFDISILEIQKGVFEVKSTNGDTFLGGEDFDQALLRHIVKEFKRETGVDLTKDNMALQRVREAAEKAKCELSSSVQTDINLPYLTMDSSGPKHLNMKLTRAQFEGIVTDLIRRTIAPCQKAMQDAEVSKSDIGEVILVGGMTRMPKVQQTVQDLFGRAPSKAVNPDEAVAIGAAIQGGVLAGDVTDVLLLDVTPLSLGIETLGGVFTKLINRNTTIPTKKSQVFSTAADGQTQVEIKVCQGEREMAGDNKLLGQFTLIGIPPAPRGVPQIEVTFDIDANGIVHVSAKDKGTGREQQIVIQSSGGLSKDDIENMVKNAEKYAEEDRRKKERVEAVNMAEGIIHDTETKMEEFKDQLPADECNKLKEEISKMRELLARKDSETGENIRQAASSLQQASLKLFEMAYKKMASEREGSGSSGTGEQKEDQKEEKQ

[5] = molecular target: T5, proteins displaced from immobilized biotin-Cmpd 1 pulldowns (U2OS cell lysate) (Homo sapiens, UniProt P50991); details: GN=CCT4 (P50991)
T5 construct: endogenous in cells; host or cells: U2OS
T5 sequence (P50991 whole entry): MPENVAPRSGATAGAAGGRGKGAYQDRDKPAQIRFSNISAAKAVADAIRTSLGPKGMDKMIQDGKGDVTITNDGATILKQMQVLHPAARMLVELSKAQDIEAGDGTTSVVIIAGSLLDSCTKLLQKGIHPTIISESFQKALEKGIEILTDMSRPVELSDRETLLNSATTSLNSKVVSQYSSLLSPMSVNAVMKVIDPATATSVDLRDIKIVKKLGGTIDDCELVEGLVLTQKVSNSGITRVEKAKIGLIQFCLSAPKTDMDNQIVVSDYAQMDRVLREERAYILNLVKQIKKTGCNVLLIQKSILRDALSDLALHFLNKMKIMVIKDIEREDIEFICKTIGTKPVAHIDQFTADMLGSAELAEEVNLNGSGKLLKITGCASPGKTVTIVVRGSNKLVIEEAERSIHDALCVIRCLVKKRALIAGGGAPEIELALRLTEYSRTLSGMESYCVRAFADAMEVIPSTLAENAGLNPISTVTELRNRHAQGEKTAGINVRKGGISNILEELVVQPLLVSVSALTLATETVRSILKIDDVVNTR

[6] = molecular target: T6, proteins displaced from immobilized biotin-Cmpd 1 pulldowns (U2OS cell lysate) (Homo sapiens, UniProt Q8NBJ5); details: GN=COLGALT1 (Q8NBJ5)
T6 construct: endogenous in cells; host or cells: U2OS

[7] = molecular target: T7, proteins displaced from immobilized biotin-Cmpd 1 pulldowns (U2OS cell lysate) (Homo sapiens, UniProt P47756); details: GN=CAPZB (P47756)
T7 construct: endogenous in cells; host or cells: U2OS
T7 sequence (P47756 whole entry): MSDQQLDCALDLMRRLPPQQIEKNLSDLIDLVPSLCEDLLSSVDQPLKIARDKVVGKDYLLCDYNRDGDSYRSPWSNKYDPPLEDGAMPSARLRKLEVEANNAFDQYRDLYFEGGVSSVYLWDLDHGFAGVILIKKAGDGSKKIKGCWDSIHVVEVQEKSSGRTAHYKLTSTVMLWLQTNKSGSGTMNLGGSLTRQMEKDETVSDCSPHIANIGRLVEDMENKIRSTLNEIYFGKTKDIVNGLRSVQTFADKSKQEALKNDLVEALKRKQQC

[8] = molecular target: T8, proteins displaced from immobilized biotin-Cmpd 1 pulldowns (U2OS cell lysate) (Homo sapiens, UniProt P62136); details: GN=PPP1CA (P62136)
T8 construct: endogenous in cells; host or cells: U2OS
T8 sequence (P62136 whole entry): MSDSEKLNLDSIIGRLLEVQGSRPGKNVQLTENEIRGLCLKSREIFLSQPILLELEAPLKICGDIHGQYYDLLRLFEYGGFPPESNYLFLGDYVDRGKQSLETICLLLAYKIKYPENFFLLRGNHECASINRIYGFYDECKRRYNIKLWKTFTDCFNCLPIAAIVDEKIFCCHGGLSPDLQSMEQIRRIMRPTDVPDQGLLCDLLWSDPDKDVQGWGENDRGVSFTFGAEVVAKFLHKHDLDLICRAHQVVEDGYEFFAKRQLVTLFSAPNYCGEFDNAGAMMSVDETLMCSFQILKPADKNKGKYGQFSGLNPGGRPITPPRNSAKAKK

[9] = molecular target: T9, proteins displaced from immobilized biotin-Cmpd 1 pulldowns (U2OS cell lysate) (Homo sapiens, UniProt P62424); details: GN=RPL7A (P62424)
T9 construct: endogenous in cells; host or cells: U2OS

[10] = molecular target: T10, proteins displaced from immobilized biotin-Cmpd 1 pulldowns (U2OS cell lysate) (Homo sapiens, UniProt Q01105); details: GN=SET (Q01105)
T10 construct: endogenous in cells; host or cells: U2OS
T10 sequence (Q01105 whole entry): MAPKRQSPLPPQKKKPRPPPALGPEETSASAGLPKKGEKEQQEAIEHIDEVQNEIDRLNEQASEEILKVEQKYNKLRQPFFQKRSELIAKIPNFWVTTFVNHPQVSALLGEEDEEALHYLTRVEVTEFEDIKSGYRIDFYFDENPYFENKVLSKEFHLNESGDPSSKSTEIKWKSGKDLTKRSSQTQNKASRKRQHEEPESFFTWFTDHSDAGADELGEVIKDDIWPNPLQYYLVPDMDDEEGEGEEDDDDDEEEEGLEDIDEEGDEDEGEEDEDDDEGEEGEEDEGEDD

Compound: Cn1c2c(c(=N)c3c1CCC3)CCC2 [Compound 1, 4-methyl-2,3,4,5,6,7-hexahydrodicyclopenta[b,e]pyridin-8(1H)-imine]
- Difference ([1]; Cmpd minus DMSO, -LOG(P-value) 0.714126): 0.947
- iBAQ Cmpd ([1]; replicates 1-3): 19.348 and 18.8178 and 18.412
- Difference ([2]; Cmpd minus DMSO, -LOG(P-value) 1.07291): -1.567
- iBAQ Cmpd ([2]; replicates 1-3): 17.2042 and 16.9875 and 16.0895
- Difference ([3]; Cmpd minus DMSO, -LOG(P-value) 0.715156): 2.317
- iBAQ Cmpd ([3]; replicates 1-3): 18.0201 and 21.1113 and 16.886
- Difference ([4]; Cmpd minus DMSO, -LOG(P-value) 0.718324): 0.7463
- iBAQ Cmpd ([4]; replicates 1-3): 19.8777 and 19.6433 and 19.5335
- Difference ([5]; Cmpd minus DMSO, -LOG(P-value) 0.713793): 0.7229
- iBAQ Cmpd ([5]; replicates 1-3): 21.0359 and 20.6692 and 20.6092
- Difference ([6]; Cmpd minus DMSO, -LOG(P-value) 0.726003): 1.872
- iBAQ Cmpd ([6]; replicates 1-3): 17.5569 and 16.2606 and 16.9957
- Difference ([7]; Cmpd minus DMSO, -LOG(P-value) 1.09295): -1.787
- iBAQ Cmpd ([7]; replicates 1-3): 15.5737 and 16.3289 and 18.0803
- Difference ([8]; Cmpd minus DMSO, -LOG(P-value) 1.15373): 2.296
- iBAQ Cmpd ([8]; replicates 1-3): 15.2178 and 17.9982 and 17.5212
- Difference ([9]; Cmpd minus DMSO, -LOG(P-value) 0.865251): 0.2314
- iBAQ Cmpd ([9]; replicates 1-3): 25.9383 and 25.6872 and 25.6067
- Difference ([10]; Cmpd minus DMSO, -LOG(P-value) 0.992199): 4.792
- iBAQ Cmpd ([10]; replicates 1-3): 21.3063 and 22.1737 and 20.6451
